Data taken from patent US9468670B2, “Melatonin-based treatment and diagnosis of bile duct disease” (Texas A&M University System, priority 2011, dated 2016).

Tests used:
AANAT = AANAT morpholino in normal rats with or without CCl4 (liver sections, qPCR, immunoblots); format: in vivo, rat
Protocol: Methods: Normal rats were treated for 1 wk with AANAT morpholino (to reduce the biliary expression of AANAT) or scrambled morpholino (1 mg/kg BW/day) by a portal vein catheter before receiving a single dose of mineral oil or CCl4 (0.4 ml by gavage 1:1 in mineral oil/100 gm BW). Two days later, in liver sections the following was evaluated: (i) the hepatic expression of AANAT; and (ii) the percentage of TUNEL-positive cholangiocytes, and IBDM. In total liver tissue, the quantitative expression of AANAT, PCNA, Bax and Bcl-2 was studied by qPCR and immunoblots. In mouse cholangiocyte lines (NMC) stably overexpressing AANAT the expression of AANAT and CLOCK genes, melatonin secretion and biliary growth were studied after 48 hr incubation.

[1] = tested on: large cholangiocyte lines; assay: PCNA expression and PKA, ERK1/2 phosphorylation (immunoblots) in immortalized large cholangiocytes; format: cell-based, mouse; conditions: melatonin 10^−11 M, 48 hours
Excerpt: (§1) The expression of MT1 and MT2 receptors in immortalized large cholangiocytes was first evaluated by immunofluorescence (Francis et al., 2008). Images were visualized using an Olympus IX-71 confocal microscope. For all immunoreactions, negative controls (with normal serum from the same species substituted for the primary antibody) were included. It was next evaluated by commercially available radioimmunoassay (RIA) kits ([…] et al., 1998; Kato et al., 1992; […] et al., 1999; […] et al., 2004) for cAMP levels ([…] et al., 1998; Kato et al., 1992; […] Shiu et al., 2010). […] […] et al., 1992; Ramirez-Rodriguez et al., 2009; […], 1999). […] Shiu et al., 2010) before evaluating by immunoblots (Francis et al., 2008) the expression of PCNA and the phosphorylation of PKA and EKR1/2.

large cholangiocytes [2] = assay: Bile duct mass, PCNA-positive cholangiocytes and apoptosis (TUNEL) in liver sections; format: in vivo, rat
Protocol: Male 344 Fischer rats (150-175 g) were purchased from Charles River (Wilmington, Mass.) and kept in a temperature-controlled environment (22° C.) with 12:12 hr light/dark cycles. Animals were fed ad libitum and had free access to food and drinking water. […] Before each surgical procedure, animals were anesthetized with sodium pentobarbital (50 mg/kg BW, IP). All animal experiments were performed in accordance with a protocol approved by the Scott and White and Texas A&M Health Science Center Institutional Animal Care and Use Committee and conform to the Guide for the Care and Use of Laboratory Animals published by the US National Institutes of Health (NIH Publication No. 85-23, revised 1996). In all animals, wet liver weight, body weight, wet liver weight to body weight ratio, and an index of liver cell growth including cholangiocytes were measured ([…] et al., 1988). The following was also evaluated in paraffin-embedded liver sections ([…]): (i) lobular necrosis; (ii) the intrahepatic bile duct mass (IBDM) of large (>[…]) ([…] et al., 1997; Glaser et al., 2009) cholangiocytes, the only biliary cell types proliferating following […] et al., 1998; Glaser et al., 2009) and (iii) the percentage of cholangiocyte apoptosis by semiquantitative terminal deoxynucleotidyltransferase biotin-dUTP nick-end labeling (TUNEL) kit (Apoptag; Chemicon International, Inc.) (Glaser et al., 2010). Lobular necrosis was measured in liver sections stained for hematoxylin and eosin (Glaser et al., 2010). […] The IBDM was measured as area occupied by CK-19 positive-bile duct/total area×100 (Glaser et al., 2010). It was also evaluated by H&E of sections if melatonin administration induces the damage of kidney, heart, stomach, spleen and small and large intestine of normal and BDL rats. The sections from the selected were evaluated in a blinded-fashion by two board-certified pathologists by a BX-51 light microscope (Olympus, Tokyo, Japan) equipped with a camera.

large cholangiocytes [3] = assay: PCNA expression and PKA, ERK1/2 phosphorylation (immunoblots) in purified large cholangiocytes from treated BDL rats; format: in vivo, rat
Protocol: Cholangiocyte proliferation was evaluated by immunoblots (Francis et al., 2008) by determination of PCNA protein expression (measured as ratio to b-actin protein expression) (Francis et al., 2008), and the phosphorylation of cAMP-dependent PKA and ERK1/2 (expressed as ratio to protein expression of the corresponding total proteins) in protein ([…]) from whole cell lysate from spleen (positive control) and large cholangiocytes from BDL rats treated with vehicle or melatonin. The intensity of the bands was determined by scanning video densitometry using the phospho-imager Storm 860 and the ImageQuant TL software version 2003.02 (GE Healthcare).

[4] = Serum transaminases (SGPT, SGOT) and total bilirubin in normal and BDL rats; format: in vivo, rat; conditions: tap water containing melatonin (20 mg/L) for 1 week
Protocol: Male 344 Fischer rats (150-175 g) were purchased from Charles River (Wilmington, Mass.) and kept in a temperature-controlled environment (22° C.) with 12:12 hr light/dark cycles. Animals were fed ad libitum and had free access to food and drinking water. […] Before each surgical procedure, animals were anesthetized with sodium pentobarbital (50 mg/kg BW, IP). All animal experiments were performed in accordance with a protocol approved by the Scott and White and Texas A&M Health Science Center Institutional Animal Care and Use Committee and conform to the Guide for the Care and Use of Laboratory Animals published by the US National Institutes of Health (NIH Publication No. 85-23, revised 1996). In all animals, wet liver weight, body weight, wet liver weight to body weight ratio, and an index of liver cell growth including cholangiocytes were measured ([…] et al., 1988). In the selected groups of animals, the serum levels of the transaminases, serum glutamate pyruvate transaminases (SGPT) and serum glutamic oxaloacetic transaminase (SGOT) and total bilirubin were evaluated using a Dimension RxL Max Integrated Chemistry system (Dade Behring Inc., Deerfield Ill.) by the Chemistry Department, Scott & White. Melatonin serum levels were measured by commercially available ELISA kits according to the instructions provided by the vendor (Genway, San Diego, Calif.).

CCA = assay: Sensitization of CCA to 5-fluorouracil and gemcitabine cytotoxicity in vitro; format: cell-based
[5] = tested on: large mouse cholangiocyte lines; assay: cAMP levels (RIA) in large mouse cholangiocyte lines; format: cell-based; conditions: melatonin 10^−11 M for 5 minutes
Excerpt: as §1

[6] = normal rats vs. scrambled morpholino
[7] = BDL rats vs. corresponding control rats

SGOT ([4]; normal rats)	SGPT ([4]; normal rats)	Total bilirubin ([4]; normal rats)	Compound	AANAT expression in liver tissue (AANAT; [6])	PCNA expression in liver tissue (AANAT; [6])	IBDM (AANAT; normal rats, 1 mg/kg BW/day for 1 wk by portal vein catheter, vs. controls)	Biliary apoptosis in response to CCl4 (AANAT; rats, 1 mg/kg BW/day for 1 wk then single dose of CCl4)	PCNA expression and phosphorylation of PKA and ERK2 (but not ERK1) [1]	Cholangiocyte apoptosis (large cholangiocytes [2]; BDL rats)	Large BDM (bile duct mass) (large cholangiocytes [2]; [7])	Percentage of PCNA-positive large cholangiocytes (large cholangiocytes [2]; [7])	Effects on bile duct mass, PCNA-positive cholangiocytes and apoptosis (large cholangiocytes [2]; normal rats)	PCNA expression in large cholangiocytes (large cholangiocytes [3]; melatonin-treated BDL rats vs. BDL control rats)	Phosphorylation of cAMP-dependent PKA and ERK2 (but not ERK1) in large cholangiocytes (large cholangiocytes [3]; melatonin-treated BDL rats vs. BDL controls)	SGOT ([4]; BDL rats)	SGPT ([4]; BDL rats)	Total bilirubin ([4]; BDL rats)	Sensitization of CCA to the cytotoxic effects of 5-fluorouracil (5-FU) (CCA)	Sensitization of CCA to the cytotoxic effects of gemcitabine (CCA)	cAMP levels [5]
			AANAT Vivo-Morpholino: Vivo-Morpholino sequence of AANAT 5′-GTTCCCCAGCTTTGGAAGTGGTCCC (SEQ ID NO:1), to reduce the biliary expression of AANAT (all phosphorodiamidate morpholino (PMO); Vivo-Morpholino delivery moiety attached, position not given here, further chemistry not fully specified)	decreased	increased	enhanced	absence													
143.0 ± 36.0 Units/L	69.4 ± 45.9 Units/L	<0.1 mg/L	COc1ccc2[nH]cc(CCNC(C)=O)c2c1 [melatonin]					decreased	enhanced	decreased	decreased	no effects	decreased	decreased	585.0 ± 162.4 Units/L	210.8 ± 45.9 Units/L	7.3 ± 1.9 mg/L	~2 fold	~2 fold	decreased
